Assay in all cases: NCI anticancer screen, dose series, 48 h
The test system of experiment [1] is HL-60(TB) leukemia.
Experiment [2] concerns RXF 393 renal.
Experiment [3] concerns MALME-3M melanoma.
The subject of experiment [4] is NCI/ADR-RES ovarian.
For experiment [5], the system named is SF-539 CNS.
In experiment [6] the test system is OVCAR-3 ovarian.
Experiment [7] deals with CCRF-CEM leukemia.
Experiment [8] deals with MOLT-4 leukemia.
For experiment [9], the system named is CAKI-1 renal.
In experiment [10] the test system is SR leukemia.

Molecules are shown by their SMILES.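 In this assay, cells in 96-well plates receive the compound at five concentrations for 48 hours. Endpoints are linearly interpolated between the surrounding concentrations. GI50 marks 50% less growth. Definition used: TGI = concentration required for complete inhibition of growth.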

For `COc1ccccc1/C=C/c1cnccn1`, the TGI in experiment [1], in experiment [2], in experiment [3], in [4], in experiment [5] and in experiment [6] was greater than 10 µM throughout. In addition, the TGI in [7], in experiment [8] and in [9] was greater than 10 µM in each case.

As for `OCCCCC#Cc1ccccc1C#Cc1cccc(O)c1`, the GI50 was 19.4 µM in [1]; 2.3 µM in experiment [2]; 18.9 µM in experiment [3]; 20 µM in experiment [4]; 17.5 µM in [5]; 20000 nM in experiment [6]. Moreover, the GI50 was 18.8 µM in experiment [7], 18 µM in [8] and 16.2 µM in experiment [9]. Also, the TGI stood at 41.9 µM in experiment [1]; 13.9 µM in experiment [2]; 40.8 µM in [3]; 47 µM in experiment [4]; 35.8 µM in experiment [5]; 44.1 µM in [6]. For the same compound, the values for the TGI in [7], in experiment [8] and in experiment [9] were 48.6 µM, 40.7 µM and 33.6 µM, respectively.

Turning to `CSC1(CC(=O)N(C)C)C(=O)Nc2ccccc21` (centres undefined), the TGI in experiment [3], in experiment [4], in experiment [5], in [6], in experiment [10] and in [8] was greater than 100 µM in each case.

With `O=C1c2ccn(CCCCNC(CO)(CO)CO)c2C(=O)c2c1c(O)c1ccccc1c2O`, the GI50 was 2.56 µM in experiment [1]; 16.3 µM in [4]; 183 nM in [6]; 2420 nM in experiment [10]; 2.27 µM in experiment [8]; 0.808 µM in [9]. The TGI in experiment [1] stood at 21 µM; in experiment [4] it was 42.3 µM; in experiment [6], 0.388 µM; in experiment [10] it was 5.76 µM; in [8], 4.2 µM; in experiment [9], 2.68 µM.

With `COc1ccc(-c2cc(-c3cccn3C)c(C#N)c(N)n2)cc1OC`, the GI50 in [1] is 19.6 µM; in [2], greater than 100 µM; in experiment [3] it was greater than 100 µM; in [4] it was greater than 100 µM; in [5], 82.4 µM; in experiment [6], greater than 100000 nM. The results for the GI50 in experiment [8] and in [9] were 46.8 µM and greater than 100 µM, respectively. The TGI in experiment [1], in experiment [2], in [3], in [4], in [5] and in experiment [6] was greater than 100 µM each time. In addition, the TGI in [8] and in experiment [9] was greater than 100 µM throughout.

`CCN(CC)CCNCC(=O)Oc1ccc(/C=C/C(=O)CC(=O)/C=C/c2ccc(OC(=O)CNCCN(CC)CC)c(OC)c2)cc1OC`: the GI50 in [1] is 3.39 µM; in [3], 2.57 µM; in [4], 5.73 µM; in [5], 2.59 µM; in [6] it was 4110 nM; in experiment [10] it was 3140 nM. Besides, the GI50 in [8] was 5.14 µM; in experiment [9], 3.2 µM. For the same compound, the TGI in [1] is 91.8 µM; in [3] it was 7.65 µM; in experiment [4] it was greater than 100 µM; in experiment [5] it was 6.74 µM; in [6], greater than 100 µM; in experiment [10] it was greater than 100 µM. Moreover, the figures for the TGI in experiment [8] and in experiment [9] were greater than 100 µM and 15.8 µM, respectively.

As to `CN(C)Cc1c[nH]c2c1C(=O)c1c(c(O)c3ccccc3c1O)C2=O`, the GI50 is 17.2 µM in experiment [1]; 9.48 µM in experiment [2]; 9.61 µM in [3]; 4.29 µM in experiment [4]; 2440 nM in experiment [6]; 3.14 µM in experiment [7]. The figures for the GI50 in experiment [8] and in experiment [9] were 3.42 µM and 10.8 µM, respectively. The TGI in [1] was found to be 75.7 µM; in experiment [2], 25.5 µM; in [3], 23.3 µM; in [4] it was 22.8 µM; in experiment [6], 13.9 µM; in experiment [7], 20.7 µM. Moreover, the TGI is greater than 100 µM in [8] and 23.9 µM in experiment [9].

As for `C#C[C@]1(O)CC[C@H]2[C@@H]3CC=C4c5sc(Nc6ccccc6)nc5CC[C@]4(C)[C@H]3CC[C@@]21C`, the GI50 in experiment [3] was 1.31 µM; in experiment [4], 2.15 µM; in [5] it was 0.37 µM; in [6] it was 1890 nM; in [10] it was 623 nM; in [7], 1.1 µM. In addition, the GI50 in experiment [8] is 0.577 µM; in experiment [9] it was 1.64 µM. Besides, the TGI in experiment [3] was 3.79 µM; in experiment [4], greater than 100 µM; in experiment [5] it was 1.52 µM; in experiment [6], 5.34 µM; in experiment [10] it was greater than 100 µM; in experiment [7] it was 11.3 µM. Moreover, the TGI in experiment [8] was determined as 12.4 µM; in [9], 4.41 µM.

The values are drawn from PubChem BioAssay (NCI).
